In patent US8222241B2, “Use of dimiracetam in the treatment of chronic pain” (priority 2007, dated 2012):
Like-named read-outs stand apart in the source and are kept apart here.

Legend:
[1] = test system: ddC-induced neuropathy; experiment: ddC-induced (antiviral-induced) neuropathy, von Frey test; type: in vivo, Sprague Dawley rats; conditions: 100 mg/kg
Protocol: (§1) Adult male Sprague Dawley rats (150-200 g, supplier Harlan) were treated by intravenous route with a single administration of 25 mg/kg of nucleoside reverse transcriptase inhibitors ddC (2′,3′-dideoxycytidine) or d4T (2′,3′-didehydro-3′-deoxythymidine). Administration of these anti-HIV drugs induced a marked allodynic response to a mechanical stimulus (Joseph E. K. 2004, Pain 107:147-158). The maximum reduction of the paw pressure threshold is developed between day 5 and day 10 after injection. The test was performed on day 10.
Rats (male adult Sprague Dawley rats, 150-200 g, supplier Harlan) were placed in a chamber with a mesh metal floor covered by a plastic dome that enabled the animals to walk freely, but not to jump. The mechanical stimulus was delivered in the mid-plantar skin of left hind paw using an electronic von Frey apparatus. The cut-off was fixed at 50 g, while the increasing force rate (ramp duration) was settled at 20 sec.

[2] = test system: Sprague Dawley rats; conditions: rat, in vivo, po, 2500 mg/kg/day
[3] = test system: mice; experiment: Hole board test in mice; type: in vivo, Swiss Webster mice; conditions: 30 min after oral administration
Description: The hole board test allows to study the behavior of rodents when confronted with a new environment (Boissier J R 1964, Therapie 19:571-583). The test enables to evaluate the initial exploratory activity of the animal and its possible variations induced by drug administration.
The hole board test uses a 40 cm square plane with 16 flush-mounted cylindrical holes (diameter 3 cm) distributed 4 by 4 in an equidistant, grid-like manner. Mice (male Swiss Webster mice weighing 25-30 g, supplier Morini) are placed one by one in the center of the board and allowed to move freely, each for a period of 5 min. Two photoelectric beams, crossing the plane from mid-point to mid-point of opposite sides, and thus dividing the plane into four equal quadrants, automatically record the movements of the animals on the plane surface. Miniature photoelectric cells in each of the 16 holes record the exploration of the holes (head plunging activity) by the mice.

[4] = test system: oxaliplatin-induced neuropathy; experiment: Oxaliplatin-induced neuropathy in rats, paw pressure test; type: in vivo, Sprague-Dawley rats; conditions: 300 mg/kg p.o. once a day
Protocol: Paw pressure test was performed 4 days after the last injection (Marchand F. et al. 2003, Brain Res. 980:117-120). • Taxol: taxol neuropathy was induced by intraperitoneal administration of 0.5 mg/kg once a day, on days 1, 3, 5 and 8. […] The pharmacological test was performed 14-18 days after the last taxol injection (Polomano R. C. et al. 2001, Pain 94:293-304). • Oxaliplatin: 2.4 mg/kg were injected by intraperitoneal route for 5 consecutive days followed by 2 days suspension (one cycle). A total of 3 cycles was performed, reaching a cumulative dose of 36 mg/kg (Cavaletti G. 2001, Eur. J. Cancer 37:2457-2463). The test was performed 48 h after the last oxaliplatin injection. 1.2 Antiviral-Induced Neuropathy […] The nociceptive threshold was determined with an analgesimeter (Ugo Basile, Italy), exerting a force that increases at constant rate (32 g/s) according to the method described by Leighton G. E. 1988, Br. J. Pharmacol. 93:553-560. The stimulus causing paw withdrawal was evaluated before and at different times after treatment. Results represent the mean of mechanical thresholds expressed as grams. To avoid any possible damage to the animal paw the maximum applied force was fixed at 240 g. The effect of […] evaluated in the oxaliplatin-induced neuropathy model after repeated administration with the paw pressure test.

[5] = test system: MIA-induced osteoarthritic pain; experiment: MIA-induced osteoarthritic pain in rats, paw pressure test; type: in vivo, Sprague Dawley rats
Protocol: Osteoarthritis was induced by a single administration of 2 mg (in a volume of 25 μl) of sodium 2-iodoacetate into the left knee joint of anaesthetized rats (male adult Sprague Dawley rats, 150-200 g, supplier Harlan) (Fernihough J. 2004, Pain 112:83-93). This treatment induces the progressive degeneration of the joint and the development of hyperalgesia, mimicking at the histological and behavioral levels what observed in humans. Pharmacological test was performed 7 days after treatment.
Mechanical hyperalgesia in rats (male adult Sprague Dawley rats, 150-200 g, supplier Harlan) was determined using the paw pressure test. The nociceptive threshold was determined with an analgesimeter (Ugo Basile, Italy), exerting a force that increases at constant rate (32 g/s) according to the method described by Leighton G. E. 1988, Br. J. Pharmacol. 93:553-560. The stimulus causing paw withdrawal was evaluated before and at different times after treatment. Results represent the mean of mechanical thresholds expressed as grams. To avoid any possible damage to the animal paw the maximum applied force was fixed at 240 g.

[6] = test system: rats; experiment: Irwin test in rats; type: in vivo, Sprague Dawley rats
Protocol: To verify if the administration of the compound may induce centrally mediated side effects, adult male Sprague Dawley rats (150-200 g, supplier Harlan) were treated with dimiracetam by subcutaneous and oral routes and monitored according to the “Irwin test” protocol (Irwin 1968, Psychopharmacologia 13:222-257), a systematic and quantitative procedure for assessing the behavioral and physiological modifications induced in animals by the drug treatment.
Rats were constantly monitored for 30 min after administration. Monitoring was iterated every morning at 9 a.m. for 4 days after administration.

[7] = test system: rats motor coordination; experiment: Motor coordination in rats (rotarod); type: in vivo, Sprague Dawley rats
Protocol: The rotarod test allows the evaluation of the effects of a compound on motor coordination. Adult male Sprague Dawley rats (200-220 g, supplier Harlan, Milan) were placed on a plastic rod 6 cm in diameter and 35 cm in length, rotating at constant speed (16 rpm) at a height of 25 cm. The rod is divided in 4 equal sections, thus up to 4 animals may be tested simultaneously. The animals were required to walk against the motion of the rotating drum over 30 seconds. The time taken to fall off the rotarod was recorded as number of falls in 30 seconds, following the method of Vaught et al. 1985, Neuropharmacology 24:211-216. In each experiment motor coordination is measured before (pre-test) and after administration of the tested compound. Rats scoring less than 3 and more than 6 falls in the pretest are rejected.

[8] = test system: rats; experiment: Rotarod/ataxia test in rats; conditions: p.o., rotating rod 10 rpm
Protocol: (§2) Neurological deficits were evaluated by the inability of the rats to remain on the rotating rod (10 rpm) for the test period.

[9] = oral doses greater than 10 mg/kg (J. Med. Chem., 1993, 36:4214-4220); cited from earlier work
[10] = test system: Cynomolgus monkeys; conditions: cynomolgus monkey, in vivo, po, 2000 mg/kg/day
[11] = test system: Sprague Dawley rats; conditions: rat, in vivo, 3000 mg/kg
[12] = test system: ddC-induced neuropathy; experiment: ddC-induced neuropathy, paw pressure test; type: in vivo, Sprague Dawley rats; conditions: 300 mg/kg orally
Protocol: as §1
Mechanical hyperalgesia in rats (male adult Sprague Dawley rats, 150-200 g, supplier Harlan) was determined using the paw pressure test. The nociceptive threshold was determined with an analgesimeter (Ugo Basile, Italy), exerting a force that increases at constant rate (32 g/s) according to the method described by Leighton G. E. 1988, Br. J. Pharmacol. 93:553-560. The stimulus causing paw withdrawal was evaluated before and at different times after treatment. Results represent the mean of mechanical thresholds expressed as grams. […]
Dimiracetam is a racemic compound; the two corresponding enantiomers were synthesized and separately tested in the ddC-induced neuropathy model. The two compounds were administered orally at doses of 150 and 300 mg/kg and their antihyperalgesic activity was evaluated with the paw pressure test.

[13] = Rotarod/ataxia test in rats; conditions: rat, in vivo, po
Protocol: as §2

[14] = 150 mg/kg, 15-30 min after administration

## O=C1CN2C(=O)CCC2N1 (racemic) [dimiracetam, 2,5-dioxohexahydro-1H-pyrrolo[1,2-a]imidazole]
[1]; 15-30 min after administration
  ddC-induced allodynia (von Frey mechanical threshold): fully reverted ddC-induced allodynia
[1]; 45 min after treatment
  ddC-induced allodynia (von Frey mechanical threshold): still statistically significant
[2]
  mortality, symptomatology, normal behavior, repeated dose: did not produce any changes
  tolerability, repeated dose: well tolerated
[3]; 3000 mg/kg p.o.
  curiosity (number of head plungings): does not significantly reduce
  spontaneous activity (number of movements of each animal on the plane): does not significantly reduce
[4]
  time after administration at which effect was statistically significant: between 30 min and 4 h
[4]; starting three days before oxaliplatin treatment and during it
  mechanical hyperalgesia (paw pressure test): significantly reduced mechanical hyperalgesia
[5]; [14]
  reversal of MIA-induced hyperalgesia (paw pressure test): statistically significant effect
[5]; 300 mg/kg, 60 min after administration
  reversal of MIA-induced hyperalgesia (paw pressure test): still statistically significant
[5]; 300 mg/kg, between 15 and 45 min after administration
  reversal of MIA-induced hyperalgesia (paw pressure test): fully reverted MIA-induced hyperalgesia
[6]; 1000 mg/kg by subcutaneous route
  effects on behavioral parameters (Irwin test): did not show any effects
[6]; 3000 mg/kg p.o.
  effects on behavioral parameters (Irwin test): did not show any effects
[7]; 3000 mg/kg p.o., acute
  motor coordination (number of falls in 30 sec, rotarod): does not alter rats motor coordination
[8]
  TD25 (dose causing 25% of fallen rats): 6000 mg/kg
[9]
  nootropic activity, dose-response: tends to lower
[10]
  tolerability, repeated dose: well tolerated
[11]; iv
  tolerability / signs of toxicity, single dose: substantially well tolerated
[11]; po
  tolerability / signs of toxicity, single dose: substantially well tolerated

## O=C1CN2C(=O)CC[C@H]2N1 (single isomer, unassigned) [(S) enantiomer]
[12]; 15 min after administration
  antihyperalgesic activity (paw pressure mechanical threshold): significant effect

## O=C1CN2C(=O)CC[C@@H]2N1 [(R)-dimiracetam]
[12]; 15-45 min after administration
  antihyperalgesic activity (paw pressure mechanical threshold): significant reduction of the pain mechanical threshold
[5]; [14]
  reversal of MIA-induced hyperalgesia (paw pressure test): statistically significant effect
[5]; 45 min after treatment, dose not restated
  reversal of MIA-induced hyperalgesia (paw pressure test): still statistically significant

## NCC1(CC(=O)O)CCCCC1 [Gabapentin, gabapentin, reference compound]
[3]; 1000 mg/kg
  curiosity (number of head plungings): statistically significant reduction
  spontaneous activity (number of movements of each animal on the plane): statistically significant reduction
[8]
  TD16 (dose causing 16% of fallen rats): 1000 mg/kg

## N#Cc1cccc(N2C(=O)CN3C(=O)CCC32)c1 (stereo not shown) [I-(3-cyanophenyl)-tetrahydropyrrolo[1,2-a]imidazole-2,5-dione]
[7]; rat, in vivo
  dose from which the number of falls is increased (rotarod): 300 mg/kg
[7]; starting from the dose of 300 mg/kg
  motor coordination (number of falls in 30 sec, rotarod): significantly altered animals motor coordination

## CC[C@@H](C(N)=O)N1CCCC1=O [levetiracetam]
[13]
  TD50: 2000 mg/kg

## CC(C)C[C@H](CN)CC(=O)O [pregabalin]
[13]
  TD50: 536 mg/kg

## COc1cccc(C2(O)CCCCC2CN(C)C)c1 (stereo not shown) [tramadol]
[13]
  TD50: 253 mg/kg
